Results from patent US20200231912A1, “USE OF STEVIOL GLYCOSIDE IN MALTING” (Corn Products Development, Inc., priority 2017, published 2020).

Experiments:
two row barley [1] = experiment: Huzzar rate assay; assay type: in vivo; conditions: Example 2; 4.5 days germination; % printed
Source text: The Huzzar rate assay informs the ratio of cereal kernels in which the acrospires have emerged from end of grains. A range of devices have been used as measuring aids having magnifying lenses and ruled scales with diverging lines that are arranged over the grain with the base and tip at the “0” and “1” lines and then divide the grain length into ¼, ½, ⅔, ¾, 1 and 1+ or overgrown. The results may be expressed as an average value. Typical result for Huzzar rate analysis is maximum 3%.

two row barley [2] = experiment: Germination rate assay; assay type: in vivo; conditions: Example 2; 4.5 days germination; % printed
Protocol: The Germination rate assay informs the percentage of germinated kernels during malting. One hundred barley grains are placed inside each one of four Petri plates containing 4mL of distilled water in a paper filter. The number of germinated kernels is measured after 24, 48 and 72 hours respectively. The germination rate is defined comparing the number of germinated kernels at 24, 48 and 72 h with total number of kernels (400). Typical result for Germination rate analysis is minimum 95%.

two row barley [3] = experiment: Malting trials: overall malt quality against defined specifications; conditions: Example 2; inferred from content in compositions A-E and Table 6
Protocol: Cereal grain malting trials were performed according to the methods described herein to compare Control malts # 1, 2 and 3 with Test malts # 1, 2, 3, 4 and 5, where steviol glycosides were added at the following rates: • Test 1: 0.00019 kg per 1 metric ton of unmalted barley; • Test 2: 0.00013 kg per 1 metric ton of unmalted barley; • Test 3: 0.00024 kg per 1 metric ton of unmalted barley; • Test 4: 0.00070 kg per 1 metric ton of unmalted barley; • Test 5: 0.00043 kg per 1 metric ton of unmalted barley; The steviol glycosides were added at the beginning of the germination process, prior to kilning. Table 5 illustrates the weight percent ranges of each steviol glycoside in a mixture of steviol glycosides.
Control malts # 1, 2 and 3 and Test malts # 1, 2, 3, 4 and 5 were prepared as follows. The general process is illustrated in FIG. 10.
Control Malt # 1 was produced according to the steeping process described in FIG. 10, which was performed in flat bottomed steep vessel, adding 400 kg of 100% two row barley having a 10% moisture content to water. The steeping process included three steeping steps, including a steeping step which was conducted for 1:15 hours and followed by a drying step which was aeration at 19-21° C. during 6 hours. The steeping step was repeated two times. When the steeping degree of the cereal grains measured ≥42%, the water was drained off in preparation for germination. Steviol glycosides and/or gibberellic acid were not added during Control Malt # 1 production.
The germinating step of Control Malt # 1 is described in FIG. 10, which occurred in a typical rectangular germination box (e.g., unit type Saladin) for 5.5 days. The ventilation air temperature during the germinating step was 15-18° C. from the first until the third germination day, followed by ventilation air temperature of 11-15° C. from the third until the last germination day, and the moisture content was 43-47%. The malt turning procedures, which provide the mixing for the germinating kernels, were used first after 24 hours of germination and second after 48 hours of germination. Once the germination time achieved the expected value for Control Malt # 1, the kernels were kilned.
The kilning step is then described in FIG. 10 as using a single floor kiln with gas heating. The kernels were heated for 16:30 hours using hot air from 55-70° C., then for 5 hours using hot air at 80° C. […] The malt was cleaned by removing the rootlets using a malt deculming screw, and the cleaned malt was packaged into 25 kilogram bags.

Compound | impact on stimulation of barley germination (two row barley [3]) | other results
C=C1C[C@]23C[C@@]1(O)CC[C@H]2[C@@]12C=C[C@H](O)[C@@](C)(C(=O)O1)[C@H]2[C@@H]3C(=O)O [Control 3, Gibberellic acid] |  | Huzzar rate (two row barley [1]): 5%; Germination rate (two row barley [2]): 90%
C=C1C[C@@]23CC[C@H]4[C@@](C)(CCC[C@@]4(C)C(=O)O[C@@H]4O[C@H](CO)[C@@H](O)[C@H](O)[C@H]4O)[C@@H]2CC[C@]1(O[C@@H]1O[C@H](CO)[C@@H](O)[C@H](O)[C@H]1O[C@@H]1O[C@@H](C)[C@H](O)[C@@H](O)[C@H]1O)C3 [Dulcoside A] | negative impact | 
C=C1C[C@@]23CC[C@H]4[C@@](C)(CCC[C@@]4(C)C(=O)O[C@@H]4O[C@H](CO)[C@@H](O)[C@H](O)[C@H]4O)[C@@H]2CC[C@]1(O[C@@H]1O[C@H](CO)[C@@H](O)[C@H](O[C@@H]2O[C@H](CO)[C@@H](O)[C@H](O)[C@H]2O)[C@H]1O[C@@H]1O[C@H](CO)[C@@H](O)[C@H](O)[C@H]1O)C3 [Rebaudioside A] | positive impact | effect on proteolytic enzymes activity and protein breakdown (two row barley [3]): appears to have an effect
C=C1C[C@@]23CC[C@H]4[C@@](C)(CCC[C@@]4(C)C(=O)O[C@@H]4O[C@H](CO)[C@@H](O)[C@H](O)[C@H]4O[C@@H]4O[C@H](CO)[C@@H](O)[C@H](O)[C@H]4O)[C@@H]2CC[C@]1(O[C@@H]1O[C@H](CO)[C@@H](O)[C@H](O[C@@H]2O[C@H](CO)[C@@H](O)[C@H](O)[C@H]2O)[C@H]1O[C@@H]1O[C@H](CO)[C@@H](O)[C@H](O)[C@H]1O)C3 [Rebaudioside D] | do not seem to play a significant role | 
C=C1C[C@@]23CC[C@H]4[C@@](C)(CCC[C@@]4(C)C(=O)O[C@@H]4O[C@H](CO)[C@@H](O)[C@H](O)[C@H]4O)[C@@H]2CC[C@]1(O[C@@H]1O[C@H](CO)[C@@H](O)[C@H](O)[C@H]1O)C3 [Rubusoside] | do not seem to play a significant role | 
C=C1C[C@@]23CC[C@H]4[C@@](C)(CCC[C@@]4(C)C(=O)O)[C@@H]2CC[C@]1(O[C@@H]1O[C@H](CO)[C@@H](O)[C@H](O)[C@H]1O[C@@H]1O[C@H](CO)[C@@H](O)[C@H](O)[C@H]1O)C3 [Steviolbioside] | do not seem to play a significant role | 
C=C1C[C@@]23CC[C@H]4[C@@](C)(CCC[C@@]4(C)C(=O)O[C@@H]4O[C@H](CO)[C@@H](O)[C@H](O)[C@H]4O)[C@@H]2CC[C@]1(O[C@@H]1O[C@H](CO)[C@@H](O)[C@H](O)[C@H]1O[C@@H]1O[C@H](CO)[C@@H](O)[C@H](O)[C@H]1O)C3 [Stevioside] | do not seem to play a significant role | 
Rebaudioside B | seems to impact barley germination at certain content ranges | 
Rebaudioside C | positive impact | 
Rebaudioside F | seems to impact barley germination at certain content ranges | 
